Test results as given in patent US9604940B2 (Chroma Therapeutics Ltd., priority 2012, dated 2017).

Assays:
[1] = test system: MCP-1; experiment: MCSF-stimulation of human whole blood, MCP-1 levels by sandwich ELISA; assay type: cell-based; settings: inhibitor 2 hours before MCSF 50 ng/ml, 22 hrs, MCP-1 in cell-free supernatants, read-out: Inhibitor activity versus MCP-1
Procedure: Macrophage Colony-Stimulating Factor (MCSF)-Stimulation of Human Whole Blood
Whole blood was taken by venous puncture using heparinised vacutainers (Becton Dickinson) and diluted in an equal volume of RPMI1640 tissue culture media (Sigma). 100 μl was plated in V-bottomed 96 well tissue culture treated plates. 2 hours after the addition of the inhibitor in 100 μl of RPMI1640 media, the blood was stimulated with MCSF (Peprotech: #300-25-10 uG) at a final concentration of 50 ng/ml and incubated at 37° C. in 5% CO2 for 22 hrs. MCP-1 levels were measured from cell-free supernatants by sandwich ELISA developed from MCP-1/CCL2 Duoset (R&D Systems #DY279). Additional reagents required for ELISA were purchased from Sigma, (BSA: A3059, 10×PBS: D1408, Tween20: P5927) R&D Systems, (colour reagent: #DY999 and stop solution: #DY994) and Costar (96-well EIA plates: #2592). Assays were carried out following the manufacturer's instructions with the following modifications: Cell-free supernatants were diluted 30:70 in reagent diluent before assay. All incubations except capture antibody were carried out with shaking at 550 rpm. 3 washes were carried out between steps, and incubation times were blocking 1.5 hr, sample/standard and detection antibody incubations 2 hr, HRP incubation 30 min, colour development 20 min. • IC50 values were allocated to one of five ranges as follows: • Range A: IC50<100 nM • Range B: 100 nM<IC50<300 nM • Range C: 300 nM<1050<1000 nM • Range D: 1000 nM<IC50<5000 nM • Range E: IC50>5000 nM • NT=not tested

[2] = target: T1, CSF1R (FMS) (Homo sapiens, UniProt P07333); experiment: CSF1R (FMS) kinase activity, Z'-LYTE biochemical assay (Invitrogen); settings: ATP at or close to Km, 60 minute reaction at room temperature, read-out: Inhibitor activity versus CSF-1
T1 construct: purchased Invitrogen (Paisley, UK)
Procedure: CSF1R (FMS) Kinase Activity
The ability of compounds to inhibit CSF1R (FMS) kinase activity was measured in an assay performed by Invitrogen (Paisley, UK). The Z′-LYTE™ biochemical assay employs a fluorescence-based, coupled-enzyme format and is based on the differential sensitivity of phosphorylated and non-phosphorylated peptides to proteolytic cleavage. The peptide substrate is labelled with two fluorophores—one at each end—that make up a FRET pair. In the primary reaction, the kinase transfers the gamma-phosphate of ATP to a single […] residue in a synthetic FRET-peptide. In the secondary reaction, a site-specific protease recognizes and cleaves non-phosphorylated FRET-peptides. Phosphorylation of FRET-peptides suppresses cleavage by the Development Reagent. Cleavage disrupts FRET between the donor (i.e. coumarin) and acceptor (i.e. fluorescein) fluorophores on the FRET-peptide, whereas uncleaved, phosphorylated FRET-peptides maintain FRET. A […] method, which calculates the ratio (the Emission Ratio) of donor emission to acceptor emission after excitation of the donor fluorophore at 400 nm, is used to quantitate reaction progress.
The final 10 μL Kinase Reaction consists of 0.12-12.3 ng CSF1R (FMS), 2 μM Tyr 01 Peptide and ATP in 50 mM HEPES pH 7.5, 0.01% BRIJ-35, 10 mM MgCl2, 1 mM EGTA. The assay is performed at an ATP concentration at, or close to, the Km. After the 60 minute Kinase Reaction incubation at room temperature, 5 μL of a 1:256 dilution of Development Reagent is added. The assay plate is incubated for a further 60 minutes at room temperature and read on a fluorescence plate reader.
Duplicate data points are generated from a ⅓ log dilution series of a stock solution of test compound in DMSO. Nine dilutions steps are made from a top concentration of 10 mM, and a ‘no compound’ blank is included. Data is collected and analysed using XLfit software from IDBS. The dose response curve is curve fitted to model number 205 (sigmoidal dose-response model). From the curve generated, the concentration giving 50% inhibition is determined and reported.

T1 sequence (P07333 20-972): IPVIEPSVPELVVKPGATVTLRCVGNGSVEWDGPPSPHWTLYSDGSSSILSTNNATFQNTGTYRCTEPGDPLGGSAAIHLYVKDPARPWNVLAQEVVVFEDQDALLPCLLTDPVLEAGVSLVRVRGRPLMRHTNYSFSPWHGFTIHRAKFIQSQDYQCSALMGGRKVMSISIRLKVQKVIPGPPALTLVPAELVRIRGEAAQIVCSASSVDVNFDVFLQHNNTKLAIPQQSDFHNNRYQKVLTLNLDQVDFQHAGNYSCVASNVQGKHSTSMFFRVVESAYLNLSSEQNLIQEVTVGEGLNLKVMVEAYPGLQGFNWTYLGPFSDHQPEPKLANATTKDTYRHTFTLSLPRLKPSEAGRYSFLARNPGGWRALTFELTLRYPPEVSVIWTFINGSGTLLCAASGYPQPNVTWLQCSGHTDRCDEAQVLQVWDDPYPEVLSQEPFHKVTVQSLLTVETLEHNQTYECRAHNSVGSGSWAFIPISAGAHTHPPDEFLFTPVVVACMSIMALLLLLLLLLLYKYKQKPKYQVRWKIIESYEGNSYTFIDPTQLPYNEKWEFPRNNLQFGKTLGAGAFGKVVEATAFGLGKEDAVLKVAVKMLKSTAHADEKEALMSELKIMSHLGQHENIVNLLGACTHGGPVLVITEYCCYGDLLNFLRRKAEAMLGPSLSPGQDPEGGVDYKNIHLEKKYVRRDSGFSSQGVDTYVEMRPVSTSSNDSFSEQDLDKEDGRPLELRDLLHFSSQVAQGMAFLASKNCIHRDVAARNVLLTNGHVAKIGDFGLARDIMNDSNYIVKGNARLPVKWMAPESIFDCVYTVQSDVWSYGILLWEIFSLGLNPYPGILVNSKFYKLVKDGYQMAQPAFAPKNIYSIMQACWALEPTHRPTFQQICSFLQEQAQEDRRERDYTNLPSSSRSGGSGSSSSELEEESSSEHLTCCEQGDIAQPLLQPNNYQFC

Compound	IC50 [1] [nM]	IC50 [2] [nM]
CC(C)(NCc1cccc(-c2cnc(N)c(NCc3c(Cl)cccc3Cl)n2)c1)C(=O)OC1CCCC1 [Example 40, Cyclopentyl N-(3-{5-amino-6-[(2,6-dichlorobenzyl)amino]pyrazin-2-yl}benzyl)-2-methylalaninate]	1000 to 5000	> 5000
Nc1ncc(-c2cccc(CCNC3CCN[C@@H](C(=O)OC4CCCC4)C3)c2)nc1NCc1c(Cl)cccc1Cl (stereo partly drawn) [Example 50, Cyclopentyl (2R)-4-{[2-(3-{5-amino-6-[(2,6-dichlorobenzyl)amino]pyrazin-2-yl}phenyl)ethyl]amino}piperidine-2-carboxylate]	100 to 300	< 100
Nc1ncc(-c2ccc(CN3CCN[C@@H](C(=O)OC4CCCC4)C3)cc2)nc1NCc1c(Cl)cccc1Cl [Example 11, Cyclopentyl (2R)-4-(4-{5-amino-6-[(2,6-dichlorobenzyl)amino]pyrazin-2-yl}benzyl)piperazine-2-carboxylate]	< 100	300 to 1000
Nc1ncc(-c2ccc(C(=O)NC3CCN[C@@H](C(=O)OC4CCCC4)C3)cc2)nc1NCc1c(Cl)cccc1Cl (stereo partly drawn) [Example 1, Cyclopentyl (2R)-4-[(4-{5-amino-6-[(2,6-dichlorobenzyl)amino]pyrazin-2-yl}benzoyl)amino]piperidine-2-carboxylate]	300 to 1000	< 100
Nc1ncc(-c2ccc(C(=O)N3CCNC(C(=O)OC4CCCC4)C3)cc2)nc1NCc1c(Cl)cccc1Cl (stereo not drawn) [Example 3, Cyclopentyl 4-(4-{5-amino-6-[(2,6-dichlorobenzyl)amino]pyrazin-2-yl}benzoyl)piperazine-2-carboxylate]	300 to 1000	100 to 300
CN(Cc1ccc(-c2cnc(N)c(NCc3c(Cl)cccc3Cl)n2)cc1)C1CCN[C@@H](C(=O)OC2CCCC2)C1 (stereo partly drawn) [Example 28, Cyclopentyl (2R)-4-[(4-{5-amino-6-[(2,6-dichlorobenzyl)amino]pyrazin-2-yl}benzyl)(methyl)amino]piperidine-2-carboxylate]	< 100	100 to 300
Nc1ncc(-c2cnn(CCNC3CCN[C@@H](C(=O)OC4CCCC4)C3)c2)nc1NCc1c(Cl)cccc1Cl (stereo partly drawn) [Example 55, Cyclopentyl (2R)-4-{[2-(4-{5-amino-6-[(2,6-dichlorobenzyl)amino]pyrazin-2-yl}-1H-pyrazol-1-yl)ethyl]amino}piperidine-2-carboxylate di-formate]	100 to 300	100 to 300
Nc1ncc(-c2cccc(CCNC3(C(=O)OC4CCCC4)CCC3)c2)nc1NCc1c(Cl)cccc1Cl [Example 49, Cyclopentyl 1-{[2-(3-{5-amino-6-[(2,6-dichlorobenzyl)amino]pyrazin-2-yl}phenyl)ethyl]amino}cyclobutanecarboxylate]	1000 to 5000	1000 to 5000
C[C@H](NCc1cccc(-c2cnc(N)c(NCc3c(Cl)cccc3Cl)n2)c1)C(=O)OC(C)(C)C [Example 45, tert-Butyl N-(3-{5-amino-6-[(2,6-dichlorobenzyl)amino]pyrazin-2-yl}benzyl)-L-alaninate]	1000 to 5000	1000 to 5000
CC(C)(C)OC(=O)[C@@H]1CC(NCc2cccc(-c3cnc(N)c(NCc4c(Cl)cccc4Cl)n3)c2)CCN1 (stereo partly drawn) [Example 47, tert-Butyl (2S)-4-[(3-{5-amino-6-[(2,6-dichlorobenzyl)amino]pyrazin-2-yl}benzyl)amino]piperidine-2-carboxylate di-formate]	300 to 1000	< 100
Nc1ncc(-c2ccc(CN3CCNC(C(=O)OC4CCCC4)C3)cc2)nc1NCc1c(Cl)cccc1Cl (stereo not drawn) [Example 9, Cyclopentyl 4-(4-{5-amino-6-[(2,6-dichlorobenzyl)amino]pyrazin-2-yl}benzyl)piperazine-2-carboxylate]	< 100	300 to 1000
CCN(Cc1ccc(-c2cnc(N)c(NCc3c(Cl)cccc3Cl)n2)cc1)C1CCN[C@@H](C(=O)OC2CCCC2)C1 (stereo partly drawn) [Example 27, Cyclopentyl (2R)-4-[(4-{5-amino-6-[(2,6-dichlorobenzyl)amino]pyrazin-2-yl}benzyl)(ethyl)amino]piperidine-2-carboxylate]	< 100	100 to 300
Nc1ncc(-c2cccc(CN3CCN[C@@H](C(=O)OC4CCCC4)C3)c2)nc1NCc1c(Cl)cccc1Cl [Example 37, Cyclopentyl (2R)-4-(3-{5-amino-6-[(2,6-dichlorobenzyl)amino]pyrazin-2-yl}benzyl)piperazine-2-carboxylate]	< 100	300 to 1000
CC(C)(C)OC(=O)C1CN(Cc2ccc(-c3cnc(N)c(NCc4c(Cl)cccc4Cl)n3)cc2)CCN1 (stereo not drawn) [Example 23, tert-Butyl 4-(4-{5-amino-6-[(2,6-dichlorobenzyl)amino]pyrazin-2-yl}benzyl)piperazine-2-carboxylate]	300 to 1000	300 to 1000
CC(C)C[C@H](NCc1cccc(-c2cnc(N)c(NCc3c(Cl)cccc3Cl)n2)c1)C(=O)OC1CCCC1 [Example 38, Cyclopentyl N-(3-{5-amino-6-[(2,6-dichlorobenzyl)amino]pyrazin-2-yl}benzyl)-L-leucinate]	> 5000	> 5000
Nc1ncc(-c2ccc(CNC3CCN[C@@H](C(=O)OC4CCCC4)C3)c(Cl)c2)nc1NCc1c(Cl)cccc1Cl (stereo partly drawn) [Example 18, Cyclopentyl (2R)-4-[(4-{5-amino-6-[(2,6-dichlorobenzyl)amino]pyrazin-2-yl}-2-chlorobenzyl)amino]piperidine-2-carboxylate]	100 to 300	100 to 300
CC(C)(NCCc1cccc(-c2cnc(N)c(NCc3c(Cl)cccc3Cl)n2)c1)C(=O)OC1CCCC1 [Example 48, Cyclopentyl N-[2-(3-{5-amino-6-[(2,6-dichlorobenzyl)amino]pyrazin-2-yl}phenyl)ethyl]-2-methylalaninate]	300 to 1000	1000 to 5000
Nc1ncc(-c2cnn(CCNC3CCN[C@H](C(=O)OC4CCCC4)C3)c2)nc1NCc1c(Cl)cccc1Cl (stereo partly drawn) [Example 56, Cyclopentyl (2S)-4-{[2-(4-{5-amino-6-[(2,6-dichlorobenzyl)amino]pyrazin-2-yl}-1H-pyrazol-1-yl)ethyl]amino}piperidine-2-carboxylate di-formate]	300 to 1000	100 to 300
Cc1cc(-c2cnc(N)c(NCc3c(Cl)cccc3Cl)n2)ccc1CNC1CCN[C@@H](C(=O)OC(C)(C)C)C1 (stereo partly drawn) [Example 26, tert-Butyl (2R)-4-[(4-{5-amino-6-[(2,6-dichlorobenzyl)amino]pyrazin-2-yl}-2-methylbenzyl)amino]piperidine-2-carboxylate]	300 to 1000	< 100
CC(C)C[C@H](NCCn1cc(-c2cnc(N)c(NCc3c(Cl)cccc3Cl)n2)cn1)C(=O)OC1CCCC1 [Example 57, Cyclopentyl N-[2-(4-{5-amino-6-[(2,6-dichlorobenzyl)amino]pyrazin-2-yl}-1H-pyrazol-1-yl)ethyl]-L-leucinate]	1000 to 5000	1000 to 5000
CC(C)(C)OC(=O)[C@@H]1CC(NCc2ccc(-c3cnc(N)c(NCc4c(Cl)cccc4Cl)n3)cc2)CCN1 (stereo partly drawn) [Example 22, tert-Butyl (2S)-4-[(4-{5-amino-6-[(2,6-dichlorobenzyl)amino]pyrazin-2-yl}benzyl)amino]piperidine-2-carboxylate]	300 to 1000	< 100
